This is an account of results in the NIST ThermoML archive (doi:10.1016/j.jct.2018.02.010).

± gives the expanded uncertainty stated by the source.

The conditions of data set [1]: 101.3 kPa, Liquid mixture 1, spinning drop method.
Data set [2] can be described thus: refractive index (Na D-line) (dimensionless). Conditions: 298.15 K; 101.33 kPa; Liquid; refractometer model RFM 81.
The conditions of data set [3]: 298.15 K; for surface tension liquid-gas: Maximal bubble pressure; for mass density: 101.33 kPa, Liquid, Vibrating tube method.

On to `CCCCCCC(=O)OC` [methyl heptanoate] + O, for which the interfacial tension in data set [1] (288.15 K) was 16 ± 0.03 mN/m; in data set [1] (298.15 K), 16.7 ± 0.03 mN/m; in data set [1] (308.15 K), 17.3 ± 0.04 mN/m; in data set [1] (318.15 K), 17.5 ± 0.04 mN/m; in data set [1] (328.15 K), 17.6 ± 0.04 mN/m; in data set [1] (338.15 K), 17.5 ± 0.04 mN/m. Further, the interfacial tension in data set [1] (348.15 K) was determined as 16.9 ± 0.03 mN/m; in data set [1] (358.15 K), 15.9 ± 0.03 mN/m.

For `COC(C)=O` [methyl ethanoate] + O, the interfacial tension in data set [1] (278.15 K) stood at 1.86 ± 0.03 mN/m; in data set [1] (288.15 K), 1.77 ± 0.03 mN/m; in data set [1] (298.15 K) it was 1.66 ± 0.03 mN/m; in data set [1] (308.15 K), 1.49 ± 0.03 mN/m; in data set [1] (318.15 K), 1.17 ± 0.03 mN/m; in data set [1] (328.15 K), 0.75 ± 0.03 mN/m.

Regarding `CCC(=O)OC` [methyl propanoate] + O, the interfacial tension in data set [1] (278.15 K) came out at 7.02 ± 0.03 mN/m; in data set [1] (288.15 K), 7.55 ± 0.03 mN/m; in data set [1] (298.15 K) it was 7.69 ± 0.03 mN/m; in data set [1] (308.15 K) it was 7.56 ± 0.03 mN/m; in data set [1] (318.15 K) it was 7.34 ± 0.03 mN/m; in data set [1] (328.15 K), 6.63 ± 0.03 mN/m. For the same compound, the interfacial tension in data set [1] (338.15 K) was 5.06 ± 0.03 mN/m.

Take `CCCCCC(=O)OC` [methyl hexanoate]: the refractive index in data set [2] is recorded as 1.40443 ± 0.0008. Further, in data set [3], the surface tension liquid-gas is on record as 26.01 ± 0.26 mN/m and the mass density came out at 879.76 ± 0.72 kg/m3.

For `CCCCCCC(=O)OC` [methyl heptanoate], the refractive index in data set [2] is 1.41086 ± 0.0008. For the same compound, in data set [3], the surface tension liquid-gas was determined as 26.73 ± 0.26 mN/m and the mass density is listed as 875.61 ± 0.72 kg/m3.

`CCC(=O)OC` [methyl propanoate]: in data set [2], the refractive index is 1.37572 ± 0.0008. Moreover, in data set [3], the surface tension liquid-gas worked out at 24.61 ± 0.25 mN/m and the mass density is recorded as 909.3 ± 0.72 kg/m3.

With `CCCCC(=O)OC` [methyl pentanoate] + O, the interfacial tension in data set [1] (278.15 K) is reported as 13.6 ± 0.03 mN/m; in data set [1] (288.15 K), 14 ± 0.03 mN/m; in data set [1] (298.15 K), 14.1 ± 0.03 mN/m; in data set [1] (308.15 K), 14 ± 0.03 mN/m; in data set [1] (318.15 K), 13.9 ± 0.03 mN/m; in data set [1] (328.15 K) it was 13.7 ± 0.03 mN/m. The interfacial tension in data set [1] (338.15 K) is reported as 13.5 ± 0.03 mN/m; in data set [1] (348.15 K) it was 13.2 ± 0.03 mN/m; in data set [1] (358.15 K), 12.9 ± 0.03 mN/m.

Regarding `COC=O` [methyl methanoate], the refractive index in data set [2] came out at 1.34174 ± 0.0008. Moreover, in data set [3], the surface tension liquid-gas came out at 24.96 ± 0.25 mN/m and the mass density is 960.85 ± 0.3 kg/m3.

For `CCCC(=O)OC` [methyl butanoate], the refractive index in data set [2] was 1.38486 ± 0.0008. Also, in data set [3], the surface tension liquid-gas is on record as 24.56 ± 0.25 mN/m and the mass density is recorded as 892.62 ± 0.72 kg/m3.

With `CCCCCC(=O)OC` [methyl hexanoate] + O, the interfacial tension was 14.6 ± 0.03 mN/m in data set [1] (278.15 K); 15 ± 0.03 mN/m in data set [1] (288.15 K); 15.5 ± 0.03 mN/m in data set [1] (298.15 K); 15.7 ± 0.03 mN/m in data set [1] (308.15 K); 15.8 ± 0.03 mN/m in data set [1] (318.15 K); 15.7 ± 0.03 mN/m in data set [1] (328.15 K). Also, the interfacial tension worked out at 15.5 ± 0.03 mN/m in data set [1] (338.15 K), 15.1 ± 0.03 mN/m in data set [1] (348.15 K) and 14.6 ± 0.03 mN/m in data set [1] (358.15 K).

On to `COC=O` [methyl methanoate] + O, for which the interfacial tension in data set [1] (278.15 K) stood at 0.56 ± 0.03 mN/m; in data set [1] (288.15 K) it was 0.77 ± 0.03 mN/m.

Regarding `CCCCC(=O)OC` [methyl pentanoate], in data set [2], the refractive index is on record as 1.39628 ± 0.0008. In data set [3], the surface tension liquid-gas came to 25.34 ± 0.25 mN/m and the mass density is recorded as 885.66 ± 0.72 kg/m3.

Consider `COC(C)=O` [methyl ethanoate], for which the refractive index in data set [2] was determined as 1.36008 ± 0.0008. Moreover, in data set [3], the surface tension liquid-gas is reported as 24.93 ± 0.25 mN/m and the mass density is 926.9 ± 0.72 kg/m3.

Turning to `CCCC(=O)OC` [methyl butanoate] + O, the interfacial tension in data set [1] (278.15 K) is 10.6 ± 0.03 mN/m; in data set [1] (288.15 K) it was 10.9 ± 0.03 mN/m; in data set [1] (298.15 K), 11.1 ± 0.03 mN/m; in data set [1] (308.15 K), 11.1 ± 0.03 mN/m; in data set [1] (318.15 K), 11 ± 0.03 mN/m; in data set [1] (328.15 K) it was 10.6 ± 0.03 mN/m. Besides, the interfacial tension in data set [1] (338.15 K) turned out to be 10.05 ± 0.03 mN/m; in data set [1] (348.15 K), 9.4 ± 0.03 mN/m.
